Data on 38 compounds can be found in patent US20240239766A1, “3-AMINO PIPERIDYL SODIUM CHANNEL INHIBITORS” (Genentech, Inc., priority 2021, published 2024).

The structures appear in SMILES notation. pIC50: −log10 of the molar value. Counter-ions that a name gives are not always drawn.

Chain of hNav1.7 (Q15858 other isoform, or with tags, fused parts or gaps): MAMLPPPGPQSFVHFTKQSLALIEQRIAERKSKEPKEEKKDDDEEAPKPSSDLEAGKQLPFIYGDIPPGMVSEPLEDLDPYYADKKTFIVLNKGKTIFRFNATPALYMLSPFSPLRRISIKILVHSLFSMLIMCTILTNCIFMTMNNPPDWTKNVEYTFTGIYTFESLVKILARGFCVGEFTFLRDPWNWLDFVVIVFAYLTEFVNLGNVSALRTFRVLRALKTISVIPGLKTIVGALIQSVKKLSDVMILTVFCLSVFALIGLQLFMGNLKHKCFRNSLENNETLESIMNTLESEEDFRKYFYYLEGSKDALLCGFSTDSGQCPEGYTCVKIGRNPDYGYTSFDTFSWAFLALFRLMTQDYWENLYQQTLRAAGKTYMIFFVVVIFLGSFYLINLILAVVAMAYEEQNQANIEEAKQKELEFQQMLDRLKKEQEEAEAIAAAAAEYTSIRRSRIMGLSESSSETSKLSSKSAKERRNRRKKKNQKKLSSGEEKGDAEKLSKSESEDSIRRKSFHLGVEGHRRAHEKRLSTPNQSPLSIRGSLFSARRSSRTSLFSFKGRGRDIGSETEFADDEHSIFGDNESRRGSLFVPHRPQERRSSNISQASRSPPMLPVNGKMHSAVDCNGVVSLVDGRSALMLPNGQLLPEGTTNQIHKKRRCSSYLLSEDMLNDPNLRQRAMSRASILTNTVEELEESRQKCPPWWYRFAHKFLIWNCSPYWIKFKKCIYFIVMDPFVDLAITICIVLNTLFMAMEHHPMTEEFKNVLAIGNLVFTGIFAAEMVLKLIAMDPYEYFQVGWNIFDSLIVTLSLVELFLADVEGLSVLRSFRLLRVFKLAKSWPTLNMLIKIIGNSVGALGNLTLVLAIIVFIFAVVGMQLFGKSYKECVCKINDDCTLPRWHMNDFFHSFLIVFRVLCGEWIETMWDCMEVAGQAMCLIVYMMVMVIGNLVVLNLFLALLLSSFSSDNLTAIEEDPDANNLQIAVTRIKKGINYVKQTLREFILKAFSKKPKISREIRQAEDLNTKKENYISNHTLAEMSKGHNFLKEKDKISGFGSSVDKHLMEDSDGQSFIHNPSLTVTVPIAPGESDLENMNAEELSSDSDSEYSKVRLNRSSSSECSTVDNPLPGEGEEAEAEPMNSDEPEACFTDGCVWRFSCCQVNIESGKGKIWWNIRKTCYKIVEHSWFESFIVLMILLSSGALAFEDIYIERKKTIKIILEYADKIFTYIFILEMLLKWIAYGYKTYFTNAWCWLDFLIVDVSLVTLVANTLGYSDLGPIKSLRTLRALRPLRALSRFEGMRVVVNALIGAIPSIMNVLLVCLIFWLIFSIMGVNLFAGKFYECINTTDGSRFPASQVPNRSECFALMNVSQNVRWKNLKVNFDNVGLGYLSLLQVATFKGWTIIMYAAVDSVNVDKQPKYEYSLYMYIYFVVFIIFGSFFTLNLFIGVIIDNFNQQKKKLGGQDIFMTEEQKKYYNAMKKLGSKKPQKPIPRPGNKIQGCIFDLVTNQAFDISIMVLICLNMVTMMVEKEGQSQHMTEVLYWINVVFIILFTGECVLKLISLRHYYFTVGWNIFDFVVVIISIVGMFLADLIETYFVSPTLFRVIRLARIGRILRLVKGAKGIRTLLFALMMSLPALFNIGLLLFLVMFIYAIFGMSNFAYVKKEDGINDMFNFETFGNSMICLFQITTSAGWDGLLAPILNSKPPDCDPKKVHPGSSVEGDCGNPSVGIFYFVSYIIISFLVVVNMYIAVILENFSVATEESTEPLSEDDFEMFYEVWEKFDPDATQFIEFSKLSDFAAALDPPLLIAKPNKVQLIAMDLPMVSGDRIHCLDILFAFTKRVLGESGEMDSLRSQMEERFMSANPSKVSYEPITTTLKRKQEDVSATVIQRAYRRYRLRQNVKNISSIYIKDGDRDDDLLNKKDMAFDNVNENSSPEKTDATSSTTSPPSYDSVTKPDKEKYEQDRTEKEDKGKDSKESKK

The target in this test is hNav1.7 (Homo sapiens (Human), UniProt Q15858). Put plainly: Patch voltage clamp electrophysiology assay (EP), Syncropatch 384PE, CHO cells expressing Nav1.7. The format is cell-based. Particulars: holding potential −50 mV; 7.5 min compound incubation; read-out: EP SP hNav1.7 EVO (IC50). An excerpt:
Example 101c: Electrophysiological Assay (EP) (In Vitro Assay)
Patch voltage clamp electrophysiology allows for the direct measurement and quantification of block of voltage-gated sodium channels (NaV's), and allows the determination of the time- and voltage-dependence of block which has been interpreted as differential binding to the resting, open, and inactivated states of the sodium channel (Hille, B., Journal of General Physiology (1977), 69: 497-515).
The following voltage clamp electrophysiology studies are performed on representative compounds using cells heterologously expressing Nav1.7 or Nav1.5 channels. cDNAsfor Nav1.7 (NM_002977) and Nav1.5 (AC137587) are stably expressed in Chinese Hamstr Ovary (CHO) cells and CHL (Chinese Hamster Lung) cells respectively. Sodium currents are measured in the whole-cell configuration using Syncropatch 384PE (Nanlon Technologies, Germany). 1NPC®-384 chips with custom medium resistance and single hole mode are used. Internal solution consists of (in mM): […], 10 CsCl, 20 EGTA, and 10 Hepes (pH adjusted to 7.2); and external solution contains (in mM): 60 NMDG, 80 NaCl, 4 KCl, 1 MgCl2, 2 CaCl2), 2 D-Glucose monohydrate, 10 Hepes (pH adjusted to 7.4 with NaOH).
After system flushing, testing compounds are dissolved in external solution containing 0.1% Pluronic F-127. The chip is moved into the measuring head and the instrument primes the chip with external and internal solutions. 10 μl cells are added to the chip from a cell hotel, and a negative pressure of −50 mBar is applied to form a seal. Following treatment with seal enhancer solution and wash-off with external solution, negative pressure of −250 mbar is applied for 1 second to achieve the whole-cell configuration, followed by three washing steps in external solution. 20 μl of compounds is added to 40 μl in each well (1:3 dilution of compounds), and after mixing, 20 μl is removed so the volume is retained at 40 ul. After approximately 13 minutes recordings, 20 μl/well of 2 uM TTX, or 333 uM Tetracaine (for Nav1.5) is added to achieve full block.
For voltage protocol, an holding potential of −50 mV is applied during the whole experiment. A depolarizing step is applied to −10 mV for 10 ms, followed by a hyperpolarization step to −150 mV for 20 ms to allow channel recovery from inactivation. A second depolarizing step is applied from −150 mV to −10 mV for 10 ms, where currents are measured to derive blocking effects of compounds. Inhibition is determined based on 7.5 min of compound incubation.
As for `CN(C)[C@]1(CCc2ccc(C(F)(F)F)c(Cl)c2)CCCN(c2cc(F)c(S(=O)(=O)Nc3ccncn3)c(F)c2)C1` (single isomer, unassigned) [Example 51], the pIC50 was 8.99.

For `CN(C)[C@@]1(CCc2cccc(C(F)(F)F)c2)CCCN(c2cc(F)c(S(=O)(=O)Nc3ncccn3)c(F)c2)C1` (single isomer, unassigned) [Example 52], the pIC50 was 6.24. As for `CN(C)[C@]1(CCc2cccc(C(F)(F)F)c2)CCCN(c2cc(F)c(S(=O)(=O)Nc3ncccn3)c(F)c2)C1` (single isomer, unassigned) [Example 53], the figure is 8.03. As for `CN(C)[C@@]1(CCc2ccc(Cl)c(C(F)(F)F)c2)CCCN(c2cc(F)c(S(=O)(=O)Nc3ccncn3)c(F)c2)C1` (single isomer, unassigned) [Example 54], the figure is 6.44; as for `CN(C)[C@]1(CCc2ccc(Cl)c(C(F)(F)F)c2)CCCN(c2cc(F)c(S(=O)(=O)Nc3ccncn3)c(F)c2)C1` (single isomer, unassigned) [Example 55, formate], 9.06. As for `CN(C)[C@@]1(CCc2ccc(C(F)(F)F)cc2Cl)CCCN(c2cc(F)c(S(=O)(=O)Nc3ccncn3)c(F)c2)C1` (single isomer, unassigned) [Example 56], the figure is 6.45; as for `CN(C)[C@]1(CCc2ccc(C(F)(F)F)cc2Cl)CCCN(c2cc(F)c(S(=O)(=O)Nc3ccncn3)c(F)c2)C1` (single isomer, unassigned) [Example 57], 8.30.

Consider `CN(C)[C@@]1(CCc2cccc(C(F)(F)F)c2)CCCN(c2cc(F)c(S(=O)(=O)Nc3ccon3)c(F)c2)C1` (single isomer, unassigned) [Example 58], for which the pIC50 was 5.00. In the case of `CN(C)[C@]1(CCc2cccc(C(F)(F)F)c2)CCCN(c2cc(F)c(S(=O)(=O)Nc3ccon3)c(F)c2)C1` (single isomer, unassigned) [Example 59] it was 7.80. In the case of `CN(CCO)[C@@]1(CCc2cccc(C(F)(F)F)c2)CCCN(c2cc(F)c(S(=O)(=O)Nc3ccncn3)c(F)c2)C1` (single isomer, unassigned) [Example 60] it was 6.86.

`CN(CCO)[C@]1(CCc2cccc(C(F)(F)F)c2)CCCN(c2cc(F)c(S(=O)(=O)Nc3ccncn3)c(F)c2)C1` (single isomer, unassigned) [Example 61]: the pIC50 is 8.67. For the compound `Cc1cc(N2CCC[C@](CCc3cccc(C(F)(F)F)c3)(N(C)C)C2)cc(C)c1S(=O)(=O)Nc1ccncn1` (single isomer, unassigned) [Example 62, formate], the pIC50 was 8.07.

`Cc1cc(N2CCC[C@@](CCc3cccc(C(F)(F)F)c3)(N(C)C)C2)cc(C)c1S(=O)(=O)Nc1ccncn1` (single isomer, unassigned) [Example 63, formate]: the pIC50 is 6.75. In the case of `CN(C)[C@@]1(CCc2cccc(C(F)(F)F)c2)CCCN(c2cc(Cl)c(S(=O)(=O)Nc3ccncn3)c(Cl)c2)C1` (single isomer, unassigned) [Example 64], the pIC50 was 8.81. Turning to `CN(C)[C@]1(CCc2cccc(C(F)(F)F)c2)CCCN(c2cc(Cl)c(S(=O)(=O)Nc3ccncn3)c(Cl)c2)C1` (single isomer, unassigned) [Example 65], the pIC50 was 7.16. In the case of `Cc1cc(N2CCC[C@](CCc3cccc(C(F)(F)F)c3)(N(C)C)C2)cc(Cl)c1S(=O)(=O)Nc1ccncn1` (single isomer, unassigned) [Example 66, formate] it was 6.30. For the compound `Cc1cc(N2CCC[C@@](CCc3cccc(C(F)(F)F)c3)(N(C)C)C2)cc(Cl)c1S(=O)(=O)Nc1ccncn1` (single isomer, unassigned) [Example 67, formate], the pIC50 is 8.62. Regarding `CN(C)[C@@]1(CCc2c(Cl)cccc2Cl)CCCN(c2cc(F)c(S(=O)(=O)Nc3ccncn3)c(F)c2)C1` (single isomer, unassigned) [Example 68, formate], the pIC50 was 5.50.

Turning to `CN(C)[C@]1(CCc2c(Cl)cccc2Cl)CCCN(c2cc(F)c(S(=O)(=O)Nc3ccncn3)c(F)c2)C1` (single isomer, unassigned) [Example 69, formate], the negative-log IC50 (pIC50) was 7.56. Take `CN(C)[C@@]1(CCc2cccc(C(F)(F)F)c2)CCCN(c2ccc(S(=O)(=O)Nc3ccncn3)c(Cl)c2)C1` (single isomer, unassigned) [Example 70]: the pIC50 was 8.37.

Take `CN(C)[C@]1(CCc2cccc(C(F)(F)F)c2)CCCN(c2ccc(S(=O)(=O)Nc3ccncn3)c(Cl)c2)C1` (single isomer, unassigned) [Example 71, formate]: the pIC50 was 6.25. `Cc1cc(N2CCC[C@](CCc3cccc(C(F)(F)F)c3)(N(C)C)C2)ccc1S(=O)(=O)Nc1ccncn1` (single isomer, unassigned) [Example 72, formate]: the pIC50 is 8.04. In the case of `Cc1cc(N2CCC[C@@](CCc3cccc(C(F)(F)F)c3)(N(C)C)C2)ccc1S(=O)(=O)Nc1ccncn1` (single isomer, unassigned) [Example 73, formate] it was 6.17; in that of `CN(C)[C@]1(CCc2cccc(C(F)(F)F)c2)CN(c2cc(F)c(S(=O)(=O)Nc3ccncn3)c(F)c2)CC[C@H]1O` (single isomer, unassigned) [Example 74, formate], 6.00. For the compound `CN(C)[C@@]1(CCc2cccc(C(F)(F)F)c2)CN(c2cc(F)c(S(=O)(=O)Nc3ccncn3)c(F)c2)CC[C@@H]1O` (single isomer, unassigned) [Example 75, formate], the pIC50 was 8.35. On to `CN(C)[C@]1(CCc2cccc(C(F)(F)F)c2)CN(c2cc(F)c(S(=O)(=O)Nc3ccncn3)c(F)c2)CC[C@@H]1O` (single isomer, unassigned) [Example 76, formate], for which the pIC50 was 7.51.

As for `CN(C)[C@@]1(CCc2cccc(C(F)(F)F)c2)CN(c2cc(F)c(S(=O)(=O)Nc3ccncn3)c(F)c2)CC[C@H]1O` (single isomer, unassigned) [Example 77, formate], the pIC50 is 8.59.

`CCN(C)[C@@]1(CCc2cccc(C(F)(F)F)c2)CCCN(c2cc(F)c(S(=O)(=O)Nc3ccncn3)c(F)c2)C1` (single isomer, unassigned) [Example 78]: the pIC50 was 6.01. As for `CCN(C)[C@]1(CCc2cccc(C(F)(F)F)c2)CCCN(c2cc(F)c(S(=O)(=O)Nc3ccncn3)c(F)c2)C1` (single isomer, unassigned) [Example 79, formate], the figure is 8.12; as for `CN([C@H]1CCOC1)[C@@]1(CCc2cccc(C(F)(F)F)c2)CCCN(c2cc(F)c(S(=O)(=O)Nc3ccncn3)c(F)c2)C1` (single isomer, unassigned) [Example 80], 6.55; as for `CN([C@@H]1CCOC1)[C@]1(CCc2cccc(C(F)(F)F)c2)CCCN(c2cc(F)c(S(=O)(=O)Nc3ccncn3)c(F)c2)C1` (single isomer, unassigned) [Example 81], 9.17. As for `CN([C@@H]1CCOC1)[C@@]1(CCc2cccc(C(F)(F)F)c2)CCCN(c2cc(F)c(S(=O)(=O)Nc3ccncn3)c(F)c2)C1` (single isomer, unassigned) [Example 82], the figure is 6.18.

As to `CN([C@H]1CCOC1)[C@]1(CCc2cccc(C(F)(F)F)c2)CCCN(c2cc(F)c(S(=O)(=O)Nc3ccncn3)c(F)c2)C1` (single isomer, unassigned) [Example 83], the pIC50 is 8.77. In the case of `Cc1ccc(CC[C@]2(N(C)C)CCCN(c3cc(F)c(S(=O)(=O)Nc4ccncn4)c(F)c3)C2)cc1C(F)(F)F` (single isomer, unassigned) [Example 84, formate] it was 8.55; in that of `Cc1ccc(CC[C@@]2(N(C)C)CCCN(c3cc(F)c(S(=O)(=O)Nc4ccncn4)c(F)c3)C2)cc1C(F)(F)F` (single isomer, unassigned) [Example 85], 6.60; in that of `CN(C)[C@@]1(CCc2ccc(C3CC3)c(C(F)(F)F)c2)CCCN(c2cc(F)c(S(=O)(=O)Nc3ccncn3)c(F)c2)C1` (single isomer, unassigned) [Example 86], 8.42.

Take `CN(C)[C@]1(CCc2ccc(C3CC3)c(C(F)(F)F)c2)CCCN(c2cc(F)c(S(=O)(=O)Nc3ccncn3)c(F)c2)C1` (single isomer, unassigned) [Example 87]: the pIC50 was 6.17. In the case of `CN(C)[C@@]1(CCc2cccc(C3CC3)c2)CCCN(c2cc(F)c(S(=O)(=O)Nc3ccncn3)c(F)c2)C1` (single isomer, unassigned) [Example 88, formate] it was 8.48.
